Results from ChEMBL document CHEMBL5316379, “Potent and Selective BCL-XL Inhibitors and PROTAC Compounds as Potential Cancer Treatment and Immunotherapy” (ACS Med Chem Lett, 2023).

How the values were obtained:
[1] = tested on: EBC-1; experiment: Growth inhibition of human EBC-1 cells assessed as cell viability incubated for 5 days by CellTiter-Glo assay; type: functional; settings: EBC-1, 120 h, time 5 day
[2] = target: von Hippel-Lindau disease tumor suppressor/Bcl-2-like protein 1 (Homo sapiens, UniProt P40337+Q07817); experiment: Protac activity at VHL/BCL-xl in human NCI-H1650 cells assessed as induction of BCL-xl degradation by Nano-Glo HiBiT assay; type: cell-based
Chain of von Hippel-Lindau disease tumor suppressor/Bcl-2-like protein 1 (Q07817 whole entry): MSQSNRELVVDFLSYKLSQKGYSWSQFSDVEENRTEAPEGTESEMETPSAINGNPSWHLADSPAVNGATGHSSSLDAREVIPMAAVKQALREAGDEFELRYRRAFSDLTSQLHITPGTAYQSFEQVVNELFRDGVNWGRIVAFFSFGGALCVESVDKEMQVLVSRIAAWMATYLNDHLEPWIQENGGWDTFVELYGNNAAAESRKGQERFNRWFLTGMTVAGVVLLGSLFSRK
Chain of von Hippel-Lindau disease tumor suppressor/Bcl-2-like protein 1 (P40337 whole entry): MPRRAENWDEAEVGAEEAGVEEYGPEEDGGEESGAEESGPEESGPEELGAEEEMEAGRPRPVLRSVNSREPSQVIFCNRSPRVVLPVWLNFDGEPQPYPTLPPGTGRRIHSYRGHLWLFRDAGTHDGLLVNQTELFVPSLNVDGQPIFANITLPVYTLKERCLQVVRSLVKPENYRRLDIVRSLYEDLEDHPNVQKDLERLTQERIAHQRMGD

SMILES	GI50 [1]	EC50 [2]
Cc1ncsc1-c1ccc([C@H](C)NC(=O)[C@@H]2C[C@@H](O)CN2C(=O)[C@@H](NC(=O)CCCCCCCCCCCCCCCN(C)CCOC23C[C@@]4(C)C[C@@](C)(C2)C[C@@](Cn2ncc(-c5ccc(N6CCCc7c6nnc(Nc6nc8ccccc8s6)c7C)nc5C(=O)O)c2C)(C3)C4)C(C)(C)C)cc1	5 nM	1 nM
Cc1ncsc1-c1ccc([C@H](C)NC(=O)[C@@H]2C[C@@H](O)CN2C(=O)[C@@H](NC(=O)CCCCCCCCCCCCCN(C)CCOC23C[C@@]4(C)C[C@@](C)(C2)C[C@@](Cn2ncc(-c5ccc(N6CCCc7c6nnc(Nc6nc8ccccc8s6)c7C)nc5C(=O)O)c2C)(C3)C4)C(C)(C)C)cc1	1 nM	
Cc1ncsc1-c1ccc([C@H](C)NC(=O)[C@@H]2C[C@@H](O)CN2C(=O)[C@@H](NC(=O)CCCCCCCN(C)CCOC23C[C@@]4(C)C[C@@](C)(C2)C[C@@](Cn2ncc(-c5ccc(N6CCCc7c6nnc(Nc6nc8ccccc8s6)c7C)nc5C(=O)O)c2C)(C3)C4)C(C)(C)C)cc1	13 nM	3 nM
Cc1ncsc1-c1ccc([C@H](C)NC(=O)[C@@H]2C[C@@H](O)CN2C(=O)[C@@H](NC(=O)CCCCCCN(C)CCOC23C[C@@]4(C)C[C@@](C)(C2)C[C@@](Cn2ncc(-c5ccc(N6CCCc7c6nnc(Nc6nc8ccccc8s6)c7C)nc5C(=O)O)c2C)(C3)C4)C(C)(C)C)cc1	9 nM	3 nM
Cc1ncsc1-c1ccc([C@H](C)NC(=O)[C@@H]2C[C@@H](O)CN2C(=O)[C@@H](NC(=O)CCCCCCCCN(C)CCOC23C[C@@]4(C)C[C@@](C)(C2)C[C@@](Cn2ncc(-c5ccc(N6CCCc7c6nnc(Nc6nc8ccccc8s6)c7C)nc5C(=O)O)c2C)(C3)C4)C(C)(C)C)cc1	23 nM	2 nM
Cc1ncsc1-c1ccc([C@H](C)NC(=O)[C@@H]2C[C@@H](O)CN2C(=O)[C@@H](NC(=O)CCCCCCCCCCCN(C)CCOC23C[C@@]4(C)C[C@@](C)(C2)C[C@@](Cn2ncc(-c5ccc(N6CCCc7c6nnc(Nc6nc8ccccc8s6)c7C)nc5C(=O)O)c2C)(C3)C4)C(C)(C)C)cc1	13 nM	1 nM
Cc1ncsc1-c1ccc([C@H](C)NC(=O)[C@@H]2C[C@@H](O)CN2C(=O)[C@@H](NC(=O)CCCCCCCCCCCCCCN(C)CCOC23C[C@@]4(C)C[C@@](C)(C2)C[C@@](Cn2ncc(-c5ccc(N6CCCc7c6nnc(Nc6nc8ccccc8s6)c7C)nc5C(=O)O)c2C)(C3)C4)C(C)(C)C)cc1	2 nM	1 nM
